Laboratory results published in PubChem BioAssay (NCI).
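All cell lines were grown in 96-well plates and treated with compound for 48 hours. At the GI50, growth is halved. TGI: total growth inhibition.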

Assays:
Assay in all cases: NCI anticancer screen, dose series, 48 h
[1] = system: SF-268 CNS
[2] = system: ACHN renal
[3] = system: SK-MEL-2 melanoma
[4] = system: SF-295 CNS
[5] = system: HCC-2998 colon
[6] = system: DU-145 prostate
[7] = system: K-562 leukemia
[8] = system: RPMI-8226 leukemia
[9] = system: SR leukemia
[10] = system: NCI-H522 lung
[11] = system: HL-60(TB) leukemia
[12] = system: NCI-H460 lung
[13] = system: NCI-H23 lung
[14] = system: 786-0 renal
[15] = system: U251 CNS
[16] = system: COLO 205 colon
[17] = system: HOP-62 NSCLC
[18] = system: SNB-19 CNS
[19] = system: KM12 colon
[20] = system: MCF7 breast
[21] = system: CAKI-1 renal
[22] = system: UO-31 renal
[23] = system: HCT-116 colon
[24] = system: NCI-H226 lung
[25] = system: A549 NSCLC
[26] = system: SNB-75 CNS
[27] = system: MDA-MB-231 breast
[28] = system: OVCAR-8 ovarian
[29] = system: SK-OV-3 ovarian
[30] = system: IGROV1 ovarian
[31] = system: T-47D breast
[32] = system: HOP-92 NSCLC
[33] = system: PC-3 prostate
[34] = system: SK-MEL-5 melanoma
[35] = system: HCT-15 colon
[36] = system: EKVX NSCLC
[37] = system: RXF 393 renal
[38] = system: UACC-257 melanoma
[39] = system: UACC-62 melanoma
[40] = system: M14 melanoma
[41] = system: HS 578T breast
[42] = system: BT-549 breast
[43] = system: MALME-3M melanoma
[44] = system: HT29 colon
[45] = system: OVCAR-5 ovarian
[46] = system: LOX IMVI melanoma
[47] = system: OVCAR-3 ovarian
[48] = system: OVCAR-4 ovarian
[49] = system: CCRF-CEM leukemia
[50] = system: SF-539 CNS
[51] = system: MDA-MB-435
[52] = system: SW-620 colon
[53] = system: NCI/ADR-RES ovarian
[54] = system: TK-10 renal
[55] = system: SN12C renal
[56] = system: A498 renal
[57] = system: MOLT-4 leukemia
[58] = system: SK-MEL-28 melanoma

SMILES: CS(=O)(=O)CCNCc1ccc(-c2ccc3ncnc(Nc4ccc(OCc5cccc(F)c5)c(C(F)(F)F)c4)c3c2)o1
- GI50 [1]: 3.74 µM
- TGI [1]: 7.78 µM
- GI50 [2]: 4.14 µM
- TGI [2]: 8.67 µM
- GI50 [3]: 4.51 µM
- TGI [3]: 8.96 µM
- GI50 [4]: 4.4 µM
- TGI [4]: 9.43 µM
- GI50 [5]: 4.4 µM
- TGI [5]: 8.29 µM
- GI50 [6]: 3.91 µM
- TGI [6]: 8.07 µM
- GI50 [7]: 5.07 µM
- TGI [7]: 20 µM
- GI50 [8]: 4.79 µM
- TGI [8]: 15.6 µM
- GI50 [9]: 6.34 µM
- TGI [9]: 19.4 µM
- GI50 [10]: 3.58 µM
- TGI [10]: 7.25 µM
- GI50 [11]: 5.65 µM
- TGI [11]: 13.4 µM
- GI50 [12]: 4.1 µM
- TGI [12]: 8.51 µM
- GI50 [13]: 3.88 µM
- TGI [13]: 8.51 µM
- GI50 [14]: 4.68 µM
- TGI [14]: 11.1 µM
- GI50 [15]: 3.98 µM
- TGI [15]: 8.48 µM
- GI50 [16]: 4.37 µM
- TGI [16]: 7.99 µM
- GI50 [17]: 4.03 µM
- TGI [17]: 8.27 µM
- GI50 [18]: 4.81 µM
- TGI [18]: 11.4 µM
- GI50 [19]: 4.06 µM
- TGI [19]: 7.63 µM
- GI50 [20]: 3.84 µM
- TGI [20]: 7.74 µM
- GI50 [21]: 4.59 µM
- TGI [21]: 13.7 µM
- GI50 [22]: 3.36 µM
- TGI [22]: 8.42 µM
- GI50 [23]: 3.94 µM
- TGI [23]: 8.16 µM
- GI50 [24]: 3.44 µM
- TGI [24]: 6.75 µM
- GI50 [25]: 4.23 µM
- TGI [25]: 9.27 µM
- GI50 [26]: 3.52 µM
- TGI [26]: 7.77 µM
- GI50 [27]: 3.78 µM
- TGI [27]: 9.83 µM
- GI50 [28]: 4.76 µM
- TGI [28]: 11.2 µM
- GI50 [29]: 3.61 µM
- TGI [29]: 9.86 µM
- GI50 [30]: 4.56 µM
- TGI [30]: 13.5 µM
- GI50 [31]: 3.4 µM
- TGI [31]: 7.74 µM
- GI50 [32]: 0.847 µM
- TGI [32]: 6.34 µM
- GI50 [33]: 4.86 µM
- TGI [33]: 10.8 µM
- GI50 [34]: 2.84 µM
- TGI [34]: 5.9 µM
- GI50 [35]: 4.02 µM
- TGI [35]: 9.12 µM
- GI50 [36]: 3.12 µM
- TGI [36]: 9.94 µM
- GI50 [37]: 2.85 µM
- TGI [37]: 6.15 µM
- GI50 [38]: 3.86 µM
- TGI [38]: 7.68 µM
- GI50 [39]: 3.94 µM
- TGI [39]: 7.48 µM
- GI50 [40]: 4.36 µM
- TGI [40]: 8.67 µM
- GI50 [41]: 3.88 µM
- TGI [41]: 13.5 µM
- GI50 [42]: 4.9 µM
- TGI [42]: 11.9 µM
- GI50 [43]: 2.74 µM
- TGI [43]: 4.11 µM
- GI50 [44]: 4.54 µM
- TGI [44]: 8.92 µM
- GI50 [45]: 5.29 µM
- TGI [45]: 15 µM
- GI50 [46]: 3.96 µM
- TGI [46]: 8.13 µM
- GI50 [47]: 4.07 µM
- TGI [47]: 8.47 µM
- GI50 [48]: 3.65 µM
- TGI [48]: 10.8 µM
- GI50 [49]: 4.8 µM
- TGI [49]: 13.9 µM
- GI50 [50]: 4.59 µM
- TGI [50]: 12.3 µM
- GI50 [51]: 4.01 µM
- TGI [51]: 7.68 µM
- GI50 [52]: 4.15 µM
- TGI [52]: 7.93 µM
- GI50 [53]: 5.54 µM
- TGI [53]: 20.7 µM
- GI50 [54]: 4.65 µM
- TGI [54]: 9.82 µM
- GI50 [55]: 4.73 µM
- TGI [55]: 14.9 µM
- GI50 [56]: 3.54 µM
- TGI [56]: 9.04 µM
- GI50 [57]: 3.81 µM
- TGI [57]: 11.1 µM
- GI50 [58]: 3.71 µM
- TGI [58]: 7.2 µM

SMILES: Cc1nc([C@H]2CC[C@H]3[C@@H]4CCC5=CC(=O)CC[C@]5(C)[C@H]4CC[C@]23C)cs1
- GI50 [1]: > 27.2 µM
- TGI [1]: > 100 µM
- GI50 [2]: 7.72 µM
- TGI [2]: > 100 µM
- GI50 [3]: > 100 µM
- TGI [3]: > 100 µM
- GI50 [4]: 2.21 µM
- TGI [4]: > 100 µM
- GI50 [5]: 6.58 µM
- TGI [5]: > 100 µM
- GI50 [6]: > 100 µM
- TGI [6]: > 100 µM
- GI50 [7]: 4.7 µM
- TGI [7]: > 100 µM
- GI50 [8]: 0.531 µM
- GI50 [9]: 0.584 µM
- GI50 [10]: 7.01 µM
- TGI [10]: > 100 µM
- GI50 [11]: 1.53 µM
- TGI [11]: > 100 µM
- GI50 [12]: 2.67 µM
- TGI [12]: > 100 µM
- GI50 [13]: 2.58 µM
- TGI [13]: > 100 µM
- GI50 [14]: > 100 µM
- TGI [14]: > 100 µM
- GI50 [15]: 5.27 µM
- TGI [15]: > 100 µM
- GI50 [16]: 5.31 µM
- TGI [16]: > 100 µM
- GI50 [17]: > 100 µM
- TGI [17]: > 100 µM
- GI50 [18]: > 100 µM
- TGI [18]: > 100 µM
- GI50 [19]: 4.72 µM
- TGI [19]: > 100 µM
- GI50 [20]: 2.78 µM
- TGI [20]: > 100 µM
- GI50 [21]: 2.3 µM
- TGI [21]: > 100 µM
- GI50 [23]: 3.47 µM
- TGI [23]: > 100 µM
- GI50 [24]: 31.7 µM
- TGI [24]: > 100 µM
- GI50 [25]: 5.25 µM
- TGI [25]: > 100 µM
- GI50 [26]: > 27 µM
- TGI [26]: > 100 µM
- GI50 [27]: > 26.7 µM
- TGI [27]: > 100 µM
- GI50 [28]: 4.62 µM
- TGI [28]: > 100 µM
- GI50 [29]: > 100 µM
- TGI [29]: > 100 µM
- GI50 [30]: > 40.3 µM
- TGI [30]: > 100 µM
- GI50 [31]: 1.83 µM
- TGI [31]: > 100 µM
- GI50 [32]: > 28.9 µM
- TGI [32]: > 100 µM
- GI50 [33]: 3.9 µM
- TGI [33]: > 100 µM
- GI50 [34]: 1.45 µM
- TGI [34]: > 100 µM
- GI50 [35]: 4.97 µM
- TGI [35]: > 100 µM
- GI50 [36]: 1.65 µM
- TGI [36]: > 100 µM
- GI50 [37]: 10.6 µM
- TGI [37]: > 100 µM
- GI50 [38]: 3.31 µM
- TGI [38]: > 100 µM
- GI50 [39]: 4.1 µM
- TGI [39]: > 100 µM
- GI50 [40]: 15.9 µM
- TGI [40]: > 100 µM
- GI50 [41]: > 66.1 µM
- TGI [41]: > 100 µM
- GI50 [42]: 1.97 µM
- TGI [42]: 8.97 µM
- GI50 [43]: 15.2 µM
- TGI [43]: > 100 µM
- GI50 [44]: 5.15 µM
- TGI [44]: > 100 µM
- GI50 [45]: > 100 µM
- TGI [45]: > 100 µM
- GI50 [46]: 5.09 µM
- TGI [46]: > 100 µM
- GI50 [47]: > 22.6 µM
- TGI [47]: > 100 µM
- GI50 [48]: 3.02 µM
- TGI [48]: > 100 µM
- GI50 [49]: 7.26 µM
- TGI [49]: > 100 µM
- GI50 [50]: 18.3 µM
- TGI [50]: > 100 µM
- GI50 [51]: 5.02 µM
- TGI [51]: > 100 µM
- GI50 [52]: 7.66 µM
- TGI [52]: > 100 µM
- GI50 [53]: 3.63 µM
- TGI [53]: > 100 µM
- GI50 [54]: 3.33 µM
- TGI [54]: > 100 µM
- GI50 [55]: > 100 µM
- TGI [55]: > 100 µM
- GI50 [56]: > 53.3 µM
- TGI [56]: > 100 µM
- GI50 [57]: 2.25 µM
- TGI [57]: > 100 µM
- GI50 [58]: > 100 µM
- TGI [58]: > 100 µM
